From PubChem BioAssay AID2060902 (Molecular Pharmacology Branch, DTP, NCI, 2025)

System: 485368-065-R3-J5-PDC spheroids with HUVEC/MSC, viability
Assay: Anticancer human tumor 485368-065-R3-J5-PDC patient-derived pancreatic carcinoma cell line growth inhibition [RAS]
Conditions: for IC50: curve of first compound; for viability, T/C: stronger effect = lower value; active = viability on the fitted dose curve at most 10% of control; inactive = the rest
Summary of the method: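 Tumour cells grown as complex spheroids with HUVEC endothelial cells and mesenchymal stem cells, treated with RAS pathway inhibitor combinations. Each agent spans half-log steps from near clinical Cmax, or 10 microM where Cmax is unknown.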

[1] = second compound 0.000949 µM, first compound 0.0316 µM
[2] = second compound 0.000949 µM, first compound 0.1 µM
[3] = second compound 0.003 µM, first compound 0.0316 µM
[4] = second compound 0.003 µM, first compound 0.1 µM
[5] = second compound 0.00949 µM, first compound 0.0316 µM
[6] = second compound 0.00949 µM, first compound 0.1 µM
[7] = second compound 0.03 µM, first compound 0.0316 µM
[8] = second compound 0.03 µM, first compound 0.1 µM
[9] = second compound 0.0949 µM, first compound 0.0316 µM
[10] = second compound 0.0949 µM, first compound 0.1 µM
[11] = second compound 0.3 µM, first compound 0.0316 µM
[12] = second compound 0.3 µM, first compound 0.1 µM
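Also: spheroids exposed to agents for seven days before readout.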

Cc1nc(N2CCC3(CC2)COC(C)C3N)c(CO)nc1Sc1ccnc(N)c1Cl (stereo unspecified) + CCn1c(-c2cc(N3CCN(C)CC3)cnc2C(C)OC)c2c3cc(ccc31)-c1csc(n1)CC(NC(=O)C1CC1C)C(=O)N1CCCC(N1)C(=O)OCC(C)(C)C2
active: viability, T/C (second compound 0.000949 µM, first compound 10 µM) 8.82% | viability, T/C (second compound 0.003 µM, first compound 3.16 µM) 7.85% | viability, T/C (second compound 0.003 µM, first compound 10 µM) 4.73% | viability, T/C (second compound 0.00949 µM, first compound 0.316 µM) 9.63% | viability, T/C (second compound 0.00949 µM, first compound 1 µM) 9.5% | viability, T/C (second compound 0.00949 µM, first compound 3.16 µM) 4.66% | viability, T/C (second compound 0.00949 µM, first compound 10 µM) 2.44% | viability, T/C [8] 10.2% | viability, T/C (second compound 0.03 µM, first compound 0.316 µM) 8.7% | viability, T/C (second compound 0.03 µM, first compound 1 µM) 5.25% | viability, T/C (second compound 0.03 µM, first compound 3.16 µM) 2.49% | viability, T/C (second compound 0.03 µM, first compound 10 µM) 1.01% | viability, T/C [9] 8.37% | viability, T/C [10] 8.31% | viability, T/C (second compound 0.0949 µM, first compound 0.316 µM) 6.58% | viability, T/C (second compound 0.0949 µM, first compound 1 µM) 3.11% | viability, T/C (second compound 0.0949 µM, first compound 3.16 µM) 1.36% | viability, T/C (second compound 0.0949 µM, first compound 10 µM) 0.74% | viability, T/C [11] 7.17% | viability, T/C [12] 6.81% | viability, T/C (second compound 0.3 µM, first compound 0.316 µM) 5.18% | viability, T/C (second compound 0.3 µM, first compound 1 µM) 2.89% | viability, T/C (second compound 0.3 µM, first compound 3.16 µM) 1.79% | viability, T/C (second compound 0.3 µM, first compound 10 µM) 0.68%
inactive: viability, T/C [1] 26.1% | viability, T/C [2] 18.6% | viability, T/C (second compound 0.000949 µM, first compound 0.316 µM) 17.5% | viability, T/C (second compound 0.000949 µM, first compound 1 µM) 15% | viability, T/C (second compound 0.000949 µM, first compound 3.16 µM) 11.8% | viability, T/C [3] 18.4% | viability, T/C [4] 15.9% | viability, T/C (second compound 0.003 µM, first compound 0.316 µM) 12.8% | viability, T/C (second compound 0.003 µM, first compound 1 µM) 10.7% | viability, T/C [5] 13.4% | viability, T/C [6] 12% | viability, T/C [7] 10.6%
< 31.6 nM: IC50 (second compound 0.000949 µM) | IC50 (second compound 0.003 µM) | IC50 (second compound 0.00949 µM) | IC50 (second compound 0.03 µM) | IC50 (second compound 0.0949 µM) | IC50 (second compound 0.3 µM)

CC(C)n1nc(-c2ccc3oc(N)nc3c2)c2c(N)ncnc21 + CCn1c(-c2cccnc2C(C)OC)c2c3cc(ccc31)N1CCOC(CC(NC(=O)C(C(C)C)N(C)C(=O)C3(F)CCN(C(=O)C#CC(C)(C)N(C)C)CC3)C(=O)N3CCCC(N3)C(=O)OCC(C)(C)C2)C1
inactive: viability, T/C (second compound 0.000949 µM, first compound 0.000316 µM) 93.8% | viability, T/C (second compound 0.000949 µM, first compound 0.001 µM) 107% | viability, T/C (second compound 0.000949 µM, first compound 0.00316 µM) 84.2% | viability, T/C (second compound 0.000949 µM, first compound 0.01 µM) 73.4% | viability, T/C [1] 38.8% | viability, T/C [2] 21.2% | viability, T/C (second compound 0.003 µM, first compound 0.000316 µM) 97.6% | viability, T/C (second compound 0.003 µM, first compound 0.001 µM) 97.3% | viability, T/C (second compound 0.003 µM, first compound 0.00316 µM) 85.6% | viability, T/C (second compound 0.003 µM, first compound 0.01 µM) 66.8% | viability, T/C [3] 37.2% | viability, T/C [4] 19.4% | viability, T/C (second compound 0.00949 µM, first compound 0.000316 µM) 88.2% | viability, T/C (second compound 0.00949 µM, first compound 0.001 µM) 115% | viability, T/C (second compound 0.00949 µM, first compound 0.00316 µM) 85.9% | viability, T/C (second compound 0.00949 µM, first compound 0.01 µM) 66.6% | viability, T/C [5] 40.2% | viability, T/C [6] 19.4% | viability, T/C (second compound 0.03 µM, first compound 0.000316 µM) 92% | viability, T/C (second compound 0.03 µM, first compound 0.001 µM) 96.3% | viability, T/C (second compound 0.03 µM, first compound 0.00316 µM) 96.2% | viability, T/C (second compound 0.03 µM, first compound 0.01 µM) 78.1% | viability, T/C [7] 36.4% | viability, T/C [8] 22.1% | viability, T/C (second compound 0.0949 µM, first compound 0.000316 µM) 89.3% | viability, T/C (second compound 0.0949 µM, first compound 0.001 µM) 98.2% | viability, T/C (second compound 0.0949 µM, first compound 0.00316 µM) 96.6% | viability, T/C (second compound 0.0949 µM, first compound 0.01 µM) 69.1% | viability, T/C [9] 40.3% | viability, T/C [10] 19.5% | viability, T/C (second compound 0.3 µM, first compound 0.000316 µM) 97.3% | viability, T/C (second compound 0.3 µM, first compound 0.001 µM) 99.4% | viability, T/C (second compound 0.3 µM, first compound 0.00316 µM) 86.9% | viability, T/C (second compound 0.3 µM, first compound 0.01 µM) 75% | viability, T/C [11] 43.9% | viability, T/C [12] 22.4%
19.9 nM: IC50 (second compound 0.00949 µM)
25.6 nM: IC50 (second compound 0.3 µM)
21.2 nM: IC50 (second compound 0.0949 µM)
19.1 nM: IC50 (second compound 0.003 µM)
21.7 nM: IC50 (second compound 0.000949 µM) | IC50 (second compound 0.03 µM)

C=CC(=O)Nc1cc(Nc2nccc(-c3cn(C)c4ccccc34)n2)c(OC)cc1N(C)CCN(C)C + C=CC(=O)N1CCN(c2nc(OCC3CCCN3C)nc3c(F)c(-c4nc(N)cc(C)c4C(F)(F)F)c(Cl)cc23)C(C)C1
> 1000 nM: IC50 (second compound 0.00316 µM) | IC50 (second compound 0.01 µM) | IC50 (second compound 0.0316 µM) | IC50 (second compound 0.1 µM) | IC50 (second compound 0.316 µM) | IC50 (second compound 1 µM)
inactive: viability, T/C (second compound 0.00316 µM, first compound 0.00316 µM) 103% | viability, T/C (second compound 0.00316 µM, first compound 0.01 µM) 89.9% | viability, T/C (second compound 0.00316 µM, first compound 0.0316 µM) 104% | viability, T/C (second compound 0.00316 µM, first compound 0.1 µM) 104% | viability, T/C (second compound 0.00316 µM, first compound 0.316 µM) 108% | viability, T/C (second compound 0.00316 µM, first compound 1 µM) 97.1% | viability, T/C (second compound 0.01 µM, first compound 0.00316 µM) 105% | viability, T/C (second compound 0.01 µM, first compound 0.01 µM) 96.9% | viability, T/C (second compound 0.01 µM, first compound 0.0316 µM) 94.8% | viability, T/C (second compound 0.01 µM, first compound 0.1 µM) 100% | viability, T/C (second compound 0.01 µM, first compound 0.316 µM) 115% | viability, T/C (second compound 0.01 µM, first compound 1 µM) 89.5% | viability, T/C (second compound 0.0316 µM, first compound 0.00316 µM) 100% | viability, T/C (second compound 0.0316 µM, first compound 0.01 µM) 98.9% | viability, T/C (second compound 0.0316 µM, first compound 0.0316 µM) 99.4% | viability, T/C (second compound 0.0316 µM, first compound 0.1 µM) 109% | viability, T/C (second compound 0.0316 µM, first compound 0.316 µM) 108% | viability, T/C (second compound 0.0316 µM, first compound 1 µM) 94.1% | viability, T/C (second compound 0.1 µM, first compound 0.00316 µM) 99.8% | viability, T/C (second compound 0.1 µM, first compound 0.01 µM) 98.6% | viability, T/C (second compound 0.1 µM, first compound 0.0316 µM) 99.7% | viability, T/C (second compound 0.1 µM, first compound 0.1 µM) 103% | viability, T/C (second compound 0.1 µM, first compound 0.316 µM) 100% | viability, T/C (second compound 0.1 µM, first compound 1 µM) 85% | viability, T/C (second compound 0.316 µM, first compound 0.00316 µM) 98% | viability, T/C (second compound 0.316 µM, first compound 0.01 µM) 93.1% | viability, T/C (second compound 0.316 µM, first compound 0.0316 µM) 111% | viability, T/C (second compound 0.316 µM, first compound 0.1 µM) 119% | viability, T/C (second compound 0.316 µM, first compound 0.316 µM) 117% | viability, T/C (second compound 0.316 µM, first compound 1 µM) 87.8% | viability, T/C (second compound 1 µM, first compound 0.00316 µM) 106% | viability, T/C (second compound 1 µM, first compound 0.01 µM) 96.8% | viability, T/C (second compound 1 µM, first compound 0.0316 µM) 110% | viability, T/C (second compound 1 µM, first compound 0.1 µM) 112% | viability, T/C (second compound 1 µM, first compound 0.316 µM) 106% | viability, T/C (second compound 1 µM, first compound 1 µM) 87.8%
